Source: ChEMBL document CHEMBL5465560, “Selectivity Literature for EUbOPEN Chemogenomic Library” (2024)

What was measured:
[1] = target: Cyclin-dependent kinase 17 (Homo sapiens) (UniProt Q00537); assay: Selectivity interaction (KinomeScan (DiscoverX)) EUB0000666a CDK17; details: at 10 µM
[2] = target: Cyclin-dependent kinase 16 (Homo sapiens) (UniProt Q00536); assay: Selectivity interaction (Kinase panel (KiNativ target engagement assay in Jurkat cells)) EUB0001635a CDK16; format: cell-based; details: Selectivity number of off-targets 0.0, Selectivity number of targets 233.0, Source Knowledge https://www.sciencedirect.com/science/article/pii/S2451945619300674?via%3Dihub, at 1 µM
Sequence of Cyclin-dependent kinase 16 (Homo sapiens) (Q00536 whole entry): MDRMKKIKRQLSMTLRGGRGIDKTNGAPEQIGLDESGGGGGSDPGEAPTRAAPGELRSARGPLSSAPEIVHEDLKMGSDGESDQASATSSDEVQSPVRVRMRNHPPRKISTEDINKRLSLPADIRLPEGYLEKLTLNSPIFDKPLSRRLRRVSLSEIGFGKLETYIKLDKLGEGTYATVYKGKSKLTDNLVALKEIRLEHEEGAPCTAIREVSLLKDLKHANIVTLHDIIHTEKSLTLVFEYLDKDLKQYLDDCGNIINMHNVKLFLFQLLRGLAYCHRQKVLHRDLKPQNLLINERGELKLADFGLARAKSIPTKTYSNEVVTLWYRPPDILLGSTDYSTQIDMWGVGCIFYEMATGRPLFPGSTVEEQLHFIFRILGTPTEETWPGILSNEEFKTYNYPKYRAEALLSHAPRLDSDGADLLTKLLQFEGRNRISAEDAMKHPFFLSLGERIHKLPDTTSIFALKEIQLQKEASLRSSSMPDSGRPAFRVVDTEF

[3] = target: T1, Mitogen-activated protein kinase 13 (Homo sapiens) (UniProt O15264); assay: Selectivity interaction (Kinase panel (KiNativ target engagement assay in Jurkat cells)) EUB0001635a MAPK13; format: cell-based; details: Selectivity number of off-targets 0.0, Selectivity number of targets 233.0, Source Knowledge https://www.sciencedirect.com/science/article/pii/S2451945619300674?via%3Dihub, at 1 µM
T1 sequence (whole entry): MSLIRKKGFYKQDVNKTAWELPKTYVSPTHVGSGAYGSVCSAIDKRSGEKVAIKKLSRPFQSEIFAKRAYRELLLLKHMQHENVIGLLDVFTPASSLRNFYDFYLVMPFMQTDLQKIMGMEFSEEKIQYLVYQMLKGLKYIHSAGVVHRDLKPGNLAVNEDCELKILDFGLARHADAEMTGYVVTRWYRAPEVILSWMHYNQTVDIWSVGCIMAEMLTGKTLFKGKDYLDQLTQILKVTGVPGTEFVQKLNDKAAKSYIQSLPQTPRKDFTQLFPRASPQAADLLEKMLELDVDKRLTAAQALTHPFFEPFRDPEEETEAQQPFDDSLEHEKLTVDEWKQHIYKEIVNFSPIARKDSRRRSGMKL

[4] = target: E3 ubiquitin-protein ligase TRIM33 (Homo sapiens) (UniProt Q9UPN9); assay: Selectivity interaction (Bromodomain panel (DSF asssay)) EUB0000270b TRIM33
[5] = target: NT-3 growth factor receptor (Homo sapiens, UniProt Q16288); assay: Selectivity interaction (Kinase panel (Invitrogen)) EUB0000639a NTRK3; details: at 200 nM
Sequence of NT-3 growth factor receptor (Q16288 32-839 limits assumed): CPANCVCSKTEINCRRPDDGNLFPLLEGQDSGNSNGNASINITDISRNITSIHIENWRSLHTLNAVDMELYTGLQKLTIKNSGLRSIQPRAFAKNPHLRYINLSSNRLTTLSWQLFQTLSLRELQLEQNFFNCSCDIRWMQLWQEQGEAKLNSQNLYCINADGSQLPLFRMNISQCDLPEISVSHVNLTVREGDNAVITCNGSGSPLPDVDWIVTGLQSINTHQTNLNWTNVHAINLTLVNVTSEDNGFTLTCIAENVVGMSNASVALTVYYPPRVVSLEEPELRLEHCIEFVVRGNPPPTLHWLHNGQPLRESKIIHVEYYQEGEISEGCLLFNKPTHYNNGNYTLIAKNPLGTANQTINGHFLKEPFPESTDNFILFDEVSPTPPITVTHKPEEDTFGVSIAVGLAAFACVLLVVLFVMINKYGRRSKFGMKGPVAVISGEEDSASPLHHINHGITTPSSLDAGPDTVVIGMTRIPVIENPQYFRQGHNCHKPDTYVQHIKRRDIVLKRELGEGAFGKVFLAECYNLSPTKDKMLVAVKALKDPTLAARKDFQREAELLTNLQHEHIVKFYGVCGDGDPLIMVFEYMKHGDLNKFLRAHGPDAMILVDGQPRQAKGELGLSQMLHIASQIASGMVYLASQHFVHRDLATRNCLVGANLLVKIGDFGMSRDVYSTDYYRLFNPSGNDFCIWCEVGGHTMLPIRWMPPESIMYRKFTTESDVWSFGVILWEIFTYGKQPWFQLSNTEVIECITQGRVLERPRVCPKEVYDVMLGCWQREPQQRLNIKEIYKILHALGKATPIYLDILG

[6] = test system: Epidermal growth factor receptor (Homo sapiens), P00533 [G719S]; details: at 10 µM
Sequence of Epidermal growth factor receptor (Homo sapiens), P00533 [G719S] (P00533 whole entry G719S): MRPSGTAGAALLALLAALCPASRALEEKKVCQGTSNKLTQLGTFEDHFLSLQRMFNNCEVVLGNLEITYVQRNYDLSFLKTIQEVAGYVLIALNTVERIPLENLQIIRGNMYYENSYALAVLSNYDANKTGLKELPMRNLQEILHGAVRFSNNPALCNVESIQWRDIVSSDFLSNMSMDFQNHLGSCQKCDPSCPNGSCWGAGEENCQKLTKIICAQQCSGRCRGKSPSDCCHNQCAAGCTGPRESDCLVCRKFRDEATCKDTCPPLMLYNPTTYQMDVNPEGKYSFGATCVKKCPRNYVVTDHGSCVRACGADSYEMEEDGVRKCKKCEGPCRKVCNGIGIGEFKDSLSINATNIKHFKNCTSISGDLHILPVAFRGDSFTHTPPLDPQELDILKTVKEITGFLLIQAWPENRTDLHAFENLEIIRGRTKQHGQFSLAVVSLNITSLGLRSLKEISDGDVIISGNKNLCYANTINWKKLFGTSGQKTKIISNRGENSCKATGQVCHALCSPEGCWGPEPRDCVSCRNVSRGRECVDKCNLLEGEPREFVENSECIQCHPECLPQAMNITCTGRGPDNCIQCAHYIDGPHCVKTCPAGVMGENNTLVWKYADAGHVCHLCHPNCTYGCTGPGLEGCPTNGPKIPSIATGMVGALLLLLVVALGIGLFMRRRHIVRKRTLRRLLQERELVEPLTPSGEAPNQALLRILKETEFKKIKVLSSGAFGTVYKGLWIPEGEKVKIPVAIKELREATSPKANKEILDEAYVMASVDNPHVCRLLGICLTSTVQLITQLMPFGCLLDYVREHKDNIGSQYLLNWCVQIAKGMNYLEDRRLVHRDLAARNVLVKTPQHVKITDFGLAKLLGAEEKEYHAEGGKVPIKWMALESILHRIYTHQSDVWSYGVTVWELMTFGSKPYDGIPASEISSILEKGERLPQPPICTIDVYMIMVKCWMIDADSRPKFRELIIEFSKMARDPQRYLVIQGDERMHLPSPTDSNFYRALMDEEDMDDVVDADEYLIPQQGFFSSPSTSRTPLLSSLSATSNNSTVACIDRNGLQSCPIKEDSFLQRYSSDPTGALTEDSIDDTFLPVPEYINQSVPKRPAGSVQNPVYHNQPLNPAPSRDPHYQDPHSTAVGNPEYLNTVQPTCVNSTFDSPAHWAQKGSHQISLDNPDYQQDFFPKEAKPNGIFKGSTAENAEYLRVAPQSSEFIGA

[7] = target: Cyclin-dependent kinase 4/cyclin D1 (Homo sapiens) (UniProt P11802+P24385); assay: (§1) Selectivity interaction (KinomeScan (DiscoverX)) EUB0000092b CDK4; format: protein-complex assay; details: at 10 µM
[8] = target: CDK4/Cyclin D3 (Homo sapiens) (UniProt P11802+P30281); assay: as §1; format: protein-complex assay; details: at 10 µM
[9] = test system: Epidermal growth factor receptor (Homo sapiens), P00533 [UNDEFINED MUTATION]; assay: Selectivity interaction (Ambit KINOMEscan and KiNATiv profiling in Jurkat cells) EUB0000090b EGFR; format: cell-based; details: at 1 µM
[10] = target: Serine/threonine-protein kinase PAK 6 (Homo sapiens) (UniProt Q9NQU5); assay: Selectivity interaction (Ambit KINOMEscan and KiNATiv profiling in Jurkat cells) EUB0000090b PAK6; format: cell-based; details: at 1 µM
[11] = target: Protein kinase C delta type (Homo sapiens) (UniProt Q05655); details: at 10 µM
Insulin receptor = Insulin receptor (Homo sapiens, UniProt P06213)
[12] = target: T2, Scaffold protein ILK (Homo sapiens) (UniProt Q13418); assay: Selectivity interaction (ActivX KiNativ screen (ex vivo kinase selectivity in human PBMCs)) EUB0001619a ILK; format: cell-based; details: PBMC, at 1 µM
T2 sequence (whole entry): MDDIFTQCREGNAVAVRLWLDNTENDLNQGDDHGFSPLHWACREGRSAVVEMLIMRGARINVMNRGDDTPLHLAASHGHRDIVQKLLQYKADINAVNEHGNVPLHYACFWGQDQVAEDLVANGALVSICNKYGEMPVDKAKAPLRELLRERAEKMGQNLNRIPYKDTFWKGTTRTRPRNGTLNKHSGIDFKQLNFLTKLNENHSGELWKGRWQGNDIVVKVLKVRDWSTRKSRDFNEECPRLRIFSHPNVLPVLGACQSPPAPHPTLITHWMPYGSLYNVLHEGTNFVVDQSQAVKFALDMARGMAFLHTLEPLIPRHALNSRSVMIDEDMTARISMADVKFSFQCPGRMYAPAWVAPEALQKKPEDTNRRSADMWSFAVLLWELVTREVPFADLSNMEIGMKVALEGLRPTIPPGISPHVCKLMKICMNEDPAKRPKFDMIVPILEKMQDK

Aurora kinase B = Aurora kinase B (Homo sapiens, UniProt Q96GD4); assay: Selectivity interaction (KinomeScan (DiscoverX)) EUB0000655a AURKB; details: at 10 µM
Sequence of Aurora kinase B (Q96GD4 whole entry): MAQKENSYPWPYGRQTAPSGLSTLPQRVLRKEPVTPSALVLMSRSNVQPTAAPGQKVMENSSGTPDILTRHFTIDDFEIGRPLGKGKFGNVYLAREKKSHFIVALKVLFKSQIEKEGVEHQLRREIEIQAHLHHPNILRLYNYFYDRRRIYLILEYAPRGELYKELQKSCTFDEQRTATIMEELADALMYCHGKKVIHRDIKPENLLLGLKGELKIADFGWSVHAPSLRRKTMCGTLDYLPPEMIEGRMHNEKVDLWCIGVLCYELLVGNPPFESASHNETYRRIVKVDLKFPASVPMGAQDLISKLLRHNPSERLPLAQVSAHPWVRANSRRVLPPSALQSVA

[13] = target: Serine/threonine-protein kinase SIK3 (Homo sapiens) (UniProt Q9Y2K2); assay: Selectivity interaction (KinomeScan (DiscoverX)) EUB0000607a SIK3; details: at 10 µM
Sequence of Serine/threonine-protein kinase SIK3 (Homo sapiens) (Q9Y2K2 whole entry, looked up): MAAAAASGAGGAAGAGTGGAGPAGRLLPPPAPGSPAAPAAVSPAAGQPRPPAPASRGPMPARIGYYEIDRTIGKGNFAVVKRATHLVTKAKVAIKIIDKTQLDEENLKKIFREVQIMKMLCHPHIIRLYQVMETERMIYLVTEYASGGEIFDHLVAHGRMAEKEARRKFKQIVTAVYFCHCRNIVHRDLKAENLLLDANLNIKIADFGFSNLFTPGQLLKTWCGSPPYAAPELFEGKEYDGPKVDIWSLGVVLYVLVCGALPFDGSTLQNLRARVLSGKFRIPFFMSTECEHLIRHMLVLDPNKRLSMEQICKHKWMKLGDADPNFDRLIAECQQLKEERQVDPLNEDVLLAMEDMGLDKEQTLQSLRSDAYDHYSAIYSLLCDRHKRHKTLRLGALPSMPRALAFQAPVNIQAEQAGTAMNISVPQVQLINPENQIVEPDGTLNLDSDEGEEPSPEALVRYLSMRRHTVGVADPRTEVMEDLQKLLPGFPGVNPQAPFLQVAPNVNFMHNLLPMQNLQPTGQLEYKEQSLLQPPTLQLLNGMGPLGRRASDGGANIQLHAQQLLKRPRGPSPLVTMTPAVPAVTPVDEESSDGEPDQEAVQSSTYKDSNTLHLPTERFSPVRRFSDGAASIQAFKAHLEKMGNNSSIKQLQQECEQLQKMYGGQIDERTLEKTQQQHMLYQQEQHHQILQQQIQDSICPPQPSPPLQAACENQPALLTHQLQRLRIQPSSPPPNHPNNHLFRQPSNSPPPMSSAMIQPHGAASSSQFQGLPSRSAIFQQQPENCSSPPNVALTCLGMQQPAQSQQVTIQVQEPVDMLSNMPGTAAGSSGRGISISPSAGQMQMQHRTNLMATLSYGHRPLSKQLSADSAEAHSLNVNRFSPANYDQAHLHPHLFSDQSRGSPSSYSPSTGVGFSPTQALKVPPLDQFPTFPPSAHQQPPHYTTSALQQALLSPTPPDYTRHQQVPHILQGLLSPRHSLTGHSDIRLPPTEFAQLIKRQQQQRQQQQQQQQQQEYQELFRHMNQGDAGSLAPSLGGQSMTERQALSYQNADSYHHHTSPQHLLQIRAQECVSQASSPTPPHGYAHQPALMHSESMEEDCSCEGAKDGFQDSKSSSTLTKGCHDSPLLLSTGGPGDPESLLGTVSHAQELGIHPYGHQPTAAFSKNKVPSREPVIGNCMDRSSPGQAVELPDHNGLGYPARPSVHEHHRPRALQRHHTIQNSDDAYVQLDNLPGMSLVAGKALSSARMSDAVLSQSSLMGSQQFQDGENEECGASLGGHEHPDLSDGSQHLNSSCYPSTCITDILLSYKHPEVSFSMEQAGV

[14] = target: Protein kinase C eta type (Homo sapiens) (UniProt P24723); assay: Selectivity interaction (KinomeScan (DiscoverX)) EUB0000607a PRKCH; details: at 10 µM
[15] = target: Phosphatidylinositol 4-kinase beta (Homo sapiens, UniProt Q9UBF8); assay: Selectivity interaction (ProQinase) EUB0000171b PI4KB
Sequence of Phosphatidylinositol 4-kinase beta (Q9UBF8 2-816 limits assumed): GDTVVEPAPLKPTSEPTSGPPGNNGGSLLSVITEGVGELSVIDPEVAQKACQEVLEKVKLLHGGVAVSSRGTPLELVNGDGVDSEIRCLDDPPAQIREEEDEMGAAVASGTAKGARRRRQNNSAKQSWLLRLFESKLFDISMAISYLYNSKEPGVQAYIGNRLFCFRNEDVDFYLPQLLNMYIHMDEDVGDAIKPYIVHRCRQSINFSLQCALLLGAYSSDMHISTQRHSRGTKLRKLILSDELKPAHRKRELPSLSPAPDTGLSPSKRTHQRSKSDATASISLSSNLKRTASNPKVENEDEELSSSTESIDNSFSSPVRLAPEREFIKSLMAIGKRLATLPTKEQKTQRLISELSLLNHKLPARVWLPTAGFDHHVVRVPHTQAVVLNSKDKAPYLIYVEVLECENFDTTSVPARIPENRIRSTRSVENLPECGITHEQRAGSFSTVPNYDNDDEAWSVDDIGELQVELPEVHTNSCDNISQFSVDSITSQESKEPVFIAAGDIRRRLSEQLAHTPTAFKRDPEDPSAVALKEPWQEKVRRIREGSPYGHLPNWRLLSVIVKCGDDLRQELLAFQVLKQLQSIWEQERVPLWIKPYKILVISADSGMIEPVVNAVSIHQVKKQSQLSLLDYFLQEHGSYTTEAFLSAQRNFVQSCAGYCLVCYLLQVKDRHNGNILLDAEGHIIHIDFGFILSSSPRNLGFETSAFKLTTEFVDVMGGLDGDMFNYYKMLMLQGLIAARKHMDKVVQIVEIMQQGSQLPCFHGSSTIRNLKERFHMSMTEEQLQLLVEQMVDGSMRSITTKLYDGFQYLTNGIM

## O=C(NOC[C@H](O)CO)c1ccc(F)c(F)c1Nc1ccc(I)cc1F
[1]
  % of control: 95%

## C=CC(=O)Nc1ccc(C(=O)Nc2[nH]nc3c2CN(C(=O)N[C@H](CN(C)C)c2ccccc2)C3(C)C)cc1
[2]
  % of engagement: 2.3%
[3]
  % of engagement: -10.3%

## Cc1cc(CN)cc(C)c1-c1ncn(C)c1-c1cncn1C
[4]
  dTM: -0.48 K

## CC[C@@H]1[C@H](F)C(=O)N[C@@H]1COc1nccc2cc(C(N)=O)c(OC)cc12 [ZIMLOVISERTIB]
[5]
  % of inhibition: 21.9%

## COCC(=O)NC/C=C/c1ccc2ncnc(Nc3ccc(Oc4ccc(C)nc4)c(C)c3)c2c1 [CP-724714]
[6]
  % of control: 0%

## CCC(=O)N1CCN(c2ccc(-n3c(=O)ccc4cnc5ccc(-c6cnc7ccccc7c6)cc5c43)cc2C(F)(F)F)CC1
[7]
  % of control: 100%
[8]
  % of control: 87%

## CN(C)C/C=C/C(=O)Nc1ccc(C(=O)N2CCCC(Nc3ncc(Cl)c(-c4c[nH]c5ccccc45)n3)C2)cc1 (stereo not drawn)
[9]
  % of control: 77%
[10]
  % of control: 87%

## Cc1cc([C@@H](C)Nc2ccccc2C(=O)O)c2nc(N3CCOCC3)cc(=O)n2c1 [AZD-6482]
[11]
  % of control: 82%

## CCc1cccc(CC)c1NC(=O)c1nn(C)c2c1CCc1cnc(Nc3ccc(C(=O)NC4CCN(C)CC4)cc3OC(F)(F)F)nc1-2
Insulin receptor
  IC50: > 10 µM

## N#Cc1cccc(-c2c[nH]c3ncnc(N4CCOCC4)c23)c1
[12]
  % of inhibition: 14%

## CN(C)CCOc1ccc(-c2nc(-c3ccncc3)c(-c3ccc4c(c3)CC/C4=N\O)[nH]2)cc1
Aurora kinase B
  % of control: 100%

## CNC(=O)Nc1ccc(-c2nc(N3CC4CCC(C3)O4)c3cnn(C4CCC5(CC4)OCCO5)c3n2)cc1
[13]
  % of control: 35%
[14]
  % of control: 91%

## C=CC(=O)Nc1cccc(C(=O)Nc2ccc(Nc3cc(-c4[nH]c(SC)nc4C)ccn3)cc2)c1
[15]; at 1 µM
  % of control: 101%
[15]; at 5 µM
  % of control: 79%
